Values joined by “and” are separate entries in the source; they are usually repeats but may differ in a detail not shown here. Equal entries are not always repeated.
Key:
[1] = for molar volume: 100 kPa, X-ray diffraction; for Triple point temperature: DSC
[2] = Molar enthalpy of transition or fusion; settings: DSC

O=[N+]([O-])[O-].O=[N+]([O-])[O-].[Ca+2] [calcium nitrate]
[1], Crystal 1
Settings | molar volume
298 K | 6.616e-05 m3/mol and 6.614e-05 m3/mol
323 K | 6.637e-05 m3/mol and 6.638e-05 m3/mol
348 K | 6.658e-05 m3/mol
373 K | 6.68e-05 m3/mol
398 K | 6.702e-05 m3/mol and 6.703e-05 m3/mol
423 K | 6.725e-05 m3/mol and 6.726e-05 m3/mol
448 K | 6.748e-05 m3/mol and 6.749e-05 m3/mol
473 K | 6.771e-05 m3/mol and 6.773e-05 m3/mol
498 K | 6.794e-05 m3/mol and 6.797e-05 m3/mol
523 K | 6.818e-05 m3/mol and 6.821e-05 m3/mol
548 K | 6.845e-05 m3/mol and 6.842e-05 m3/mol
573 K | 6.871e-05 m3/mol and 6.866e-05 m3/mol
598 K | 6.9e-05 m3/mol and 6.89e-05 m3/mol
623 K | 6.92e-05 m3/mol and 6.915e-05 m3/mol
648 K | 6.945e-05 m3/mol and 6.94e-05 m3/mol
673 K | 6.97e-05 m3/mol and 6.967e-05 m3/mol
698 K | 6.994e-05 m3/mol and 6.992e-05 m3/mol
723 K | 7.019e-05 m3/mol

Settings | Molar enthalpy of transition or fusion, [2] [kcal/mol] | Triple point temperature, [1] [K]
Crystal 1 | 7.98 | 823
Crystal 2 | 0.0289 | 290

Source: the NIST ThermoML archive (doi:10.1016/j.jct.2019.03.007)
